Results published in US20100298302A1, “NOVEL PROTEIN KINASE MODULATORS” (priority 2009, published 2010).

Tests used:
recombinant PIM-1 = recombinant PIM-1 (Homo sapiens, UniProt P11309); assay: PIM-1 kinase assay; assay type: biochemical; conditions: for inhibition at 0.5 µM: 500 nM compound, read-out: PIM1: % inh 500 nM; for IC50: 15 μM ATP, read-out: PIM1: IC50 (15 μM ATP)
Procedure: The following procedure was used to assay the PIM-1 kinase activity of compounds of the invention. Other methods for assaying PIM-1 and other PIM kinases, as well as methods to assay for activity against various kinases known in the art.
In a final reaction volume of 50 ul, recombinant PIM-1 (1 ng) was incubated with 12 mM MOPS pH 7.0, 0.4 mM EDTA, glycerol 1%, brij 35 0.002%, 2-mercaptoethanol 0.02%, BSA 0.2 mg/ml, 100 uM KKRNRTLTK, 10 mM MgAcetate, 15 uM ATP, [γ-^33P-ATP] (specific activity approx. 500 cpm/pmol), DMSO 4% and test inhibitor compound at the required concentration. The reaction was initiated by the addition of the Magnesium ATP mixture. After 40 min incubation at 23° C., the reactions were quenched by the addition of 100 ul 0.75% Phosphoric acid, and the labeled peptide collected by filtration through a phosphocellulose filter plate. The plate was washed 4 times with 0.075% phosphoric acid (100 ul per well) and then, after the addition of scintillation fluid (20 ul per well), the counts were measured by a scintillation counter.

[1] = test system: K-562 human chronic myelogenous leukemia (CML) cells; assay: Alamar Blue cell proliferation assay, K-562; assay type: cell-based; conditions: K562, Table 4
Procedure: (§1) A representative cell-proliferation assay protocol using Alamar Blue dye (stored at 4° C., use 20 ul per well) is described hereafter.
(§2) a. Split and trypsinize cells.
(§3) b. Count cells using hemocytometer.
(§4) c. Plate 4,000-5,000 cells per well in 100 μl of medium and seed into a 96-well plate according to the following plate layout. Add cell culture medium only to wells B10 to B12. Wells B1 to B9 have cells but no compound added.
(§5) d. Add 100 μl of 2× drug dilution to each well in a concentration shown in the plate layout above. At the same time, add 100 μl of media into the control wells (wells B10 to B12). Total volume is 200 μl/well.
(§6) e. Incubate four (4) days at 37° C., 5% CO2 in a humidified incubator.
(§7) f. Add 20 μl Alamar Blue reagent to each well.
(§8) g. Incubate for four (4) hours at 37° C., 5% CO2 in a humidified incubator.
(§9) h. Record fluorescence at an excitation wavelength of 544 nm and emission wavelength of 590 nm using a microplate reader.
(§10) In the assays, cells are cultured with a test compound for approximately four days, the dye is then added to the cells and fluorescence of […] dye is detected after approximately four hours. Different types of cells can be utilized in the assays (e.g., HCT-116 human colorectal carcinoma cells, PC-3 human prostatic cancer cells, MDA-MB231 human breast cancer cells, K-562 human chronic myelogenous leukemia (CML) cells, MiaPaca human pancreatic carcinoma cells, MV-4 human acute myeloid leukemia cells, and BxPC3 human pancreatic adenocarcinoma cells).

MV-4-11 = assay: Alamar Blue cell proliferation assay, MV-4-11; assay type: cell-based; conditions: Homo sapiens, MV4-11; Table 4
Procedure: as §1, §2, §3, §4, §5, §6, §7, §8, §9, §10

Sequence of recombinant PIM-1 (P11309 whole entry): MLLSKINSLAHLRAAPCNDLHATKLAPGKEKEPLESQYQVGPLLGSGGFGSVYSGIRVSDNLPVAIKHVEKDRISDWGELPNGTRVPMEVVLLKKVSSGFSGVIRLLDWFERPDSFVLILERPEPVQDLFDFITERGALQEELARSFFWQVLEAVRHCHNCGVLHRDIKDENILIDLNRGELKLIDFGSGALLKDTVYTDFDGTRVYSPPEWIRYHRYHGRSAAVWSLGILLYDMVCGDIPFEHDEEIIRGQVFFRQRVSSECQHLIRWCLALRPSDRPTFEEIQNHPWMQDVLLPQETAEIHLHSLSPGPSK

| inhibition at 0.5 µM (recombinant PIM-1) | IC50 (recombinant PIM-1) | IC50 [1] | IC50 (MV-4-11) | Compound |
| --- | --- | --- | --- | --- |
| -24.5% | – | – | – | c1ccc(Nc2nc3cc(-c4nnc[nH]4)ccc3n3cccc23)cc1 |
| 75.9% | 164 nM | > 10000 nM | > 10000 nM | c1ccc(Nc2nc3cc(-c4nnn[nH]4)ccc3n3cccc23)cc1 |
| 14.4% | – | – | – | c1ccc(CNc2nc3cc(-c4nnn[nH]4)ccc3n3cccc23)cc1 |
| 67.9% | 273 nM | > 10000 nM | > 10000 nM | OCCNc1nc2cc(-c3nnn[nH]3)ccc2n2cccc12 |
| 73.2% | 365 nM | > 10000 nM | > 10000 nM | Fc1ccc(Nc2nc3cc(-c4nnn[nH]4)ccc3n3cccc23)cc1 |
| 15% | – | – | – | COc1cccc(Nc2nc3cc(-c4nnn[nH]4)ccc3n3cccc23)c1 |
| 19.4% | – | – | – | COc1ccc(Nc2nc3cc(-c4nnn[nH]4)ccc3n3cccc23)cc1Cl |
| 10.9% | – | – | – | COc1ccc(OC)c(Nc2nc3cc(-c4nnn[nH]4)ccc3n3cccc23)c1 |
| 63.5% | 486 nM | > 10000 nM | > 10000 nM | CN(C)CCNc1nc2cc(-c3nnn[nH]3)ccc2n2cccc12 |
| 76.5% | 173 nM | > 10000 nM | 688 nM | CN(C)CCNc1nc2cc(C(=O)O)ccc2n2cccc12 |
| 81.5% | 97 nM | > 10000 nM | > 10000 nM | CCN1CCCC1CNc1nc2cc(-c3nnn[nH]3)ccc2n2cccc12 (stereo not shown) |
| 98.8% | 372 nM | > 10000 nM | > 10000 nM | O=C(O)c1ccc2c(c1)nc(NCCN1CCCCC1)c1cccn12 |
| 72.5% | 504 nM | > 10000 nM | > 10000 nM | O=C(O)c1ccc2c(c1)nc(NCCN1CCCC1)c1cccn12 |
| 89.7% | 200 nM | > 10000 nM | > 10000 nM | CCN1CCCC1CNc1nc2cc(C(=O)O)ccc2n2cccc12 (stereo not shown) |
| 69.5% | 330 nM | > 10000 nM | > 10000 nM | CN1CCCC(Nc2nc3cc(C(=O)O)ccc3n3cccc23)C1 (stereo not shown) |
| 35% | – | – | – | O=C(O)c1ccc2c(c1)nc(NCCO)c1cccn12 |
| 41.8% | – | – | – | O=c1[nH]c2cc(-c3nnn[nH]3)ccc2n2cccc12 |

The remaining lines, values behind:

| Compound | inhibition at 0.5 µM (recombinant PIM-1) | IC50 (recombinant PIM-1) | IC50 [1] | IC50 (MV-4-11) |
| --- | --- | --- | --- | --- |
| N#Cc1ccc2c(c1)nc(Cl)c1cccn12 | -35.4% | – | – | – |
| N#Cc1ccc2c(c1)nc(NCc1ccccc1)c1cccn12 | -35% | – | – | – |
| O=C(O)c1ccc2c(c1)nc(Nc1ccccc1)c1cccn12 | 73.1% | 130 nM | > 10000 nM | 483 nM |
| CCOC(=O)c1ccc2c(c1)nc(Nc1ccc(F)c(Cl)c1)c1cccn12 | -76.2% | – | – | – |
| O=C(O)c1ccc2c(c1)nc(NCCN1CCOCC1)c1cccn12 | 18.9% | – | – | – |
| O=C(O)c1ccc2c(c1)nc(NCCC(F)(F)F)c1cccn12 | 46% | – | – | – |
| CCOC(=O)c1ccc2c(c1)[nH]c(=O)c1cccn12 | 14% | – | – | – |
| O=C(O)c1ccc2c(c1)[nH]c(=O)c1cccn12 | 25.6% | – | – | – |
| N#Cc1ccc2c(c1)[nH]c(=O)c1cccn12 | -28.6% | – | – | – |
| CC(=O)N1CCN(C(=O)c2ccc3c(c2)[nH]c(=O)c2cccn23)CC1 | -8.35% | – | – | – |
| CC(C)(C)OC(=O)N1CCN(C(=O)c2ccc3c(c2)[nH]c(=O)c2cccn23)CC1 | -27.1% | – | – | – |
| CC(C)(C)OC(=O)N1CCCN(C(=O)c2ccc3c(c2)[nH]c(=O)c2cccn23)CC1 | -46.9% | – | – | – |
| CN(C)CCNC(=O)c1ccc2c(c1)[nH]c(=O)c1cccn12 | -13.9% | – | – | – |
| NC(=O)c1ccc2c(c1)[nH]c(=O)c1cccn12 | -22.5% | – | – | – |
| O=C(c1ccc2c(c1)[nH]c(=O)c1cccn12)N1CCNCC1 | -11.8% | – | – | – |
| O=C(c1ccc2c(c1)[nH]c(=O)c1cccn12)N1CCCNCC1 | -0.195% | – | – | – |
| CN1CCN(C(=O)c2ccc3c(c2)[nH]c(=O)c2cccn23)CC1 | -31.9% | – | – | – |
